We go through one compound from ChEMBL document CHEMBL5370528, “Synthesis-accessibility-oriented design of c-Jun N-terminal kinase 1 inhibitor” (Eur J Med Chem, 2023).

The test system of one test is Mus musculus. Nature of the test: Anti-fibrotic activity in bleomycin-induced C57BL/6 mouse model of pulmonary fibrosis assessed as reduction in mortality rate at 25 mg/kg, po administered twice a day for 3 weeks (reference value: 43%). Type of test: functional. Also noted: scale not given: the % may be the effect or the level left.
For test [1], the target named is Mitogen-activated protein kinase 10 (Homo sapiens, UniProt P53779). Nature of the test: Inhibition of N-terminal GST-tagged recombinant full length human JNK3 expressed in baculovirus infected Sf9 cells using IPTTPITTTYFFFKKK as substrate incubated for 60 mins in the presence of ATP by ADP-Glo reagent based luminescence assay. (In general: In ADP-Glo the light output rises with the ADP produced.)

Test [2] has as its target c-Jun N-terminal kinase, JNK (Homo sapiens) (UniProt P45983+P53779+P45984). Nature of the test: Inhibition of JNK in human BEAS-2B cells assessed as inhibition of anisomycin-activated c-Jun phosphorylation preincubated for 1 hrs followed by anisomycin activation for 1 hrs by Western blot analysis. In kind it is cell-based. To be noted: dose 2-50 µM, time 2.0 hrs.

Chain of Mitogen-activated protein kinase 10 (P53779 whole entry): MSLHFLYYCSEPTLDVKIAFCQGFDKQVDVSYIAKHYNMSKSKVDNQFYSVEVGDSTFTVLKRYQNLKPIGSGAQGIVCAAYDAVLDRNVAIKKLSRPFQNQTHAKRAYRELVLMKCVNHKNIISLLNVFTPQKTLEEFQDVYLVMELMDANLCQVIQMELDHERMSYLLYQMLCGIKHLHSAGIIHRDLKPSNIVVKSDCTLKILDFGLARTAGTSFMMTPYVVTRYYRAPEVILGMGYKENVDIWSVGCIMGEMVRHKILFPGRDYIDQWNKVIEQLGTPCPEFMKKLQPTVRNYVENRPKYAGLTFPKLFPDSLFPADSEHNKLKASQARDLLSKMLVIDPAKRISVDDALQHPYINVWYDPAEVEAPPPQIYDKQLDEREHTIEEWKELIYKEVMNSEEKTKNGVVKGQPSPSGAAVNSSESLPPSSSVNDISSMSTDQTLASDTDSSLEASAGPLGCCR

One may read the IC50 as the midpoint of a concentration-inhibition curve. Take `CC(C)(C)CNc1ncc(Br)c(Nc2ccccc2C(N)=O)n1`: the Activity in the test on Mus musculus was 14%. Also, in test [1], the IC50 is 33.2 nM. Besides, the inhibition entry in test [2] is “Dose-Dependent Effect”.
